Measurements as given in a melting point compilation (Tetko et al.; mined from patent text by program, amines drawn as free bases though some values may be those of a salt).

| Structure (SMILES) | melting point |
| --- | --- |
| O=C(O)c1ccc(NCc2ccc(Cl)cc2)cc1 | 206 to 208 °C |
| O=C(NC1CCCCC1)NS(=O)(=O)c1ccc(CCNC(=O)N2CCc3ccccc3C2=O)cc1 | 197 to 198 °C |
| CC(C)(C)c1cc(SC#N)cc(C(C)(C)C)c1O | 61.5 to 63 °C |
| O=C(Nc1cc(Cl)ccc1O)Nc1cc(C(F)(F)F)ccc1Cl | 172 to 173 °C |
| CC(C)(C)OC(=O)CCCCCOc1ccc2sc(-c3ccccn3)nc(=O)c2c1 | 101 to 102 °C |
| Cc1ccc(S(=O)(=O)N2CCC(Sc3ccc(F)cc3)CC2)cc1 | 131 to 132 °C |
| CC(=O)OC1CC2C3CCC(C(C)CCCC(C)C)C3(C)CCC2C2(C)CC(F)C(O)CC12 (stereo unspecified) | 148 to 150 °C |
| CCOC(=O)C1=CC(=O)CC(c2ccc(Cl)cc2)N1 (stereo unspecified) | 93 to 94 °C |
| COC(=O)CCN(C)CCNC(=O)c1nc(Cl)c(N)nc1N | 136 to 137 °C |
| CC(C)(C)[Si](C)(C)Oc1ccc2c(c1)C(=O)c1ccc(O[Si](C)(C)C(C)(C)C)cc1C2=O | 131 to 133 °C |
| COc1cc(OCC(CO)CO)c(-c2cccs2)cc1C=CC(=O)c1ccc(C(=O)O)cc1 | 199 to 201 °C |
| CC(C)(C)OC(=O)Nc1ccc(OC(=O)C2CCCCC2)c(C(=O)O)c1 | 68 to 74 °C |
| COC[C@H](C1CC1)n1cc(Cl)nc(Cl)c1=O | 110 to 111 °C |
| CCC(COC)(OC)c1cncc(O)c1 (stereo unspecified) | 87 to 88 °C |
| Cc1c(F)c(F)c(-n2ncc(C#N)c2N)c(F)c1F | 169 to 170 °C |
| CC(C)(C)c1cc(CN2CC(O)C2)cc(C(C)(C)C)c1O | 139 to 142 °C |
| O=C(CN1C(=O)C2(COc3cc4c(cc32)OCCO4)c2ccccc21)Nc1ccccc1F (stereo unspecified) | 117 to 119 °C |
| CCOC(=O)Cn1ncc(-c2ccc(F)cc2)c1-c1ccccc1 | 86 to 87 °C |
| Fc1ccc(Nc2ncnc3cc(-c4ccco4)ccc23)cc1Cl | > 250 °C |
| NC(=O)N(O)C1C=C(c2cccc(Oc3ccccc3)c2)CC1 (single isomer, unassigned; (+)) | 139 to 141 °C |
| Cc1oncc1C(=O)Nc1ccc(-n2nc(C3CC3)cc2C2CC2)cc1 | 153 to 158 °C |
| O=[N+]([O-])c1cccc2c(NCC34CCCN3CCC4)cccc12 | 95 to 97 °C |
| NC(=O)c1sc2nccc(N3CCCN(c4ccc([N+](=O)[O-])cc4)CC3)c2c1N | 244 to 248 °C |
| O=CNc1ccc2c(c1)C(=O)CCC2 | 137 to 138 °C |
| CCN1CCCC1CNC(=O)c1c(O)ccc(Br)c1OC (stereo unspecified) | 62 to 63 °C |
| CCc1c([N+](=O)[O-])c(C(N)=O)nn1C1CN(C(c2ccccc2)c2ccccc2)C1 | 254 to 257 °C |

| Structure (SMILES) | melting point |
| --- | --- |
| CSCC(=O)[C@H](Cc1ccc(O)cc1)NC(=O)[C@H](CC(C)C)NC(=O)OCc1ccccc1 | 108 to 111 °C |
| CCCCCN1C(=O)C2(COc3cc4c(cc32)OCCO4)c2ccccc21 (stereo unspecified) | 111 to 113 °C |
| Cc1cccc(C(=O)Nc2c[nH]nc2C(=O)NCCOC(C)C)n1 | 150 to 151 °C |
| COc1cc(C=Cc2cc(OC)c(OC)c(OC)c2)cc(Br)c1OC | 180 to 182 °C |
| COc1ccc(OCC(O)CCCl)cc1 (stereo unspecified) | 65 to 68 °C |
| N=c1n(Cc2ccc(F)c(F)c2)c2ccc(Br)cc2n1Cc1ccc(F)c(F)c1 | 88 to 89.5 °C |
| COc1ccc(-c2ccc(NC(=O)CCc3ccc(CN4CCCC4)cc3)cc2)cc1 | 185 to 188 °C |
| Cc1[nH]c2ccc(S(=O)(=O)c3ccccc3)cc2c1CCNC(=O)OC(C)(C)C | 210 to 213 °C |
| N#CCCNC(=O)c1cccc(-c2cccc(Oc3ccccc3Cl)n2)c1 | 82 to 83 °C |
| NC(=O)C1=NN(c2cccc(COCC(F)(F)C(F)(F)F)c2)C(c2ccccc2)N1 (stereo unspecified) | 146 to 148 °C |
| Nc1c(NC=O)c(=O)[nH]c(=O)n1Cc1ccc(Cl)cc1 | 274 to 278 °C |
| COC(=O)c1ccc(C(=O)Nc2ccc3ccc(Cl)nc3n2)cc1 | 275 °C |
| COc1cc(C(C)=O)ccc1OCCCCN1CCN(c2nsc3ccccc23)CC1 | 114 to 116 °C |
| Cn1cncc1-c1cc(C=NN(CCC(C)(C)O)C(N)=S)nc(NC2CCN(S(C)(=O)=O)CC2)n1 | 204 to 206 °C |
| Cc1nc2c(c3ccccc3n3nnnc23)n1CC(C)(C)O | 202 to 205 °C |
| CCOC(=O)C(Cc1cccnc1)c1nnc2c(CC(C)C)nc(-c3ccccc3)cn12 (stereo unspecified) | 110 to 111 °C |
| CC12CC(=O)C3C(CCC4CC(O)CCC43C)C1CCC2C(=O)COCCN1CCOCC1 (stereo unspecified) | 112 to 113 °C |
| Cc1sc(-c2cccs2)cc1Br | 36 to 37 °C |
| CC(C)C[C@@H](C(=O)O)N(C)C(=O)OCc1ccccc1 | 69 to 71 °C |
| CCn1c2ccccc2c2cc(C=C(C#N)c3cc(C(F)(F)F)cc(C(F)(F)F)c3)ccc21 | 164 to 165 °C |
| Nc1nc(CN2CCN(C(c3ccccc3)c3ccccc3)CC2)cs1 | 156 to 160 °C |
| CC(=NNC(=O)c1cc([N+](=O)[O-])cc2ccccc12)c1ccncc1 | 228 °C |
| CC(C(=O)NCc1cccs1)(c1ccccc1)c1ccccc1 | 90 to 91 °C |
| O=C1CCCc2c1ccc1c2OCO1 | 132 to 136 °C |
| O=c1c2ccc(OCc3ccccc3)cc2[nH]c2c([N+](=O)[O-])ccc(Cl)c12 | 198 to 202 °C |
| O=C(O)/C=C/C=C(c1cccc(C(F)(F)F)c1)c1cccc(C(F)(F)F)c1 | 110 to 112 °C |

| Structure (SMILES) | melting point |
| --- | --- |
| O=C(O)CCCCCC=C(c1ccccc1)c1ccccc1 | 88 to 89 °C |
| CC(=O)N(CCCC(=NNC(N)=S)c1ccccc1)C(C)C | 141 to 147 °C |
| CC(=O)C1C(=O)CC(C#N)CC1=O (stereo unspecified) | 66 to 69 °C |
| O=C(O)c1cc(Oc2ccc(Cl)cc2Cl)ccc1Br | 132 to 133 °C |
| C#CCOc1cc(-n2nc(CCC=C)[nH]c2=O)c(Cl)cc1Cl | 150 to 151 °C |
| COc1ccc(-c2c[nH]cc2C#N)cc1OC | 212 to 214 °C |
| CC1=C(c2cccc(C(F)(F)F)c2)n2ncc(C#N)c2N(C(=O)CCl)C1 | 178 to 182 °C |
| O=C(O)CCC(=O)N1CCc2cc(S(=O)(=O)N3CCN(c4ccc(C(=O)O)cc4)CC3)ccc21 | 255 to 257 °C |
| Cc1cccc(OCC(O)CNCCOc2ccccc2)c1 (stereo unspecified) | 81 to 82 °C |
| CNc1ccc(-c2nc3ccc(F)cc3s2)cc1 | 154 °C |
| Cc1ccc(C(=O)CCc2ccc(N)cc2)cc1 | 59 to 61 °C |
| COc1cc(-n2cnnc2I)ccc1C | 123 °C |
| CCOC(=O)CNC(=O)Nc1ccc(OC)cc1F | 158 to 159 °C |
| CCOC(=O)C=Cc1cc(C=CS(=O)(=O)c2ccccc2)cc(Cc2cccnc2)c1 | 118 to 120 °C |
| CSC1C(=O)Nc2ccc(Oc3ccc(C(F)(F)F)c(Cl)c3)cc21 (stereo unspecified) | 174 to 178 °C |
| O=C(N[C@@H](Cc1ccc(Cl)cc1)C(=O)N1CCC(O)CC1)c1cc2cc(Cl)ccc2[nH]1 | 227 to 229 °C |
| CC(c1oc2ccccc2c(=O)c1-c1cccc(F)c1)n1nc(-c2ccc(OC(F)(F)F)cc2)c2c(N)ncnc21 (stereo unspecified) | 224 to 226 °C |
| CCN1CCCC(c2ccc(OC)c(OC)c2)C1 (stereo unspecified) | 50 °C |
| Cn1cnc2cc(C(c3ccccc3)n3ccnc3)ccc21 (stereo unspecified) | 139 °C |
| O=C(CO)c1ccc(Oc2ccccc2)cc1 | 67 to 69 °C |
| O=C(O)CCCCCCCNS(=O)(=O)c1ccc([N+](=O)[O-])cc1 | 126 to 127 °C |
| Oc1ccc2cc(OCCN3CCC(Cc4ccc(F)cc4)CC3)ccc2c1 | 184 to 185 °C |
| CCCCCCCCCCCCCCOc1ccc(C(=O)O)cc1 | 95 to 99 °C |
| Cc1nc(N2CCN(Cc3ccc(OC(F)(F)F)cc3)C2=O)sc1C(N)=O | 185 to 187 °C |
| CN1CCC23CCCCC2C1Cc1ccc(Oc2nc(-c4ccccc4)nc4ccccc24)cc13 (single isomer, unassigned; (+)) | 138 to 139 °C |
| O=C(C=C(S)c1ccccc1)Nc1nc2ccccc2s1 | 168 to 172 °C |

| Structure (SMILES) | melting point |
| --- | --- |
| CN1CCCCC1CNC(=O)Nc1cc(N2CC(c3ccccc3)CC2=O)ccn1 (stereo unspecified) | 144 to 146 °C |
| O=c1[nH][nH]c(=O)c2nc3cc(Cl)ccc3cc12 | 353 to 355 °C |
| COC(=O)C1CCC2C3CCC4CC=CCC4(C)C3C(NCCC(C)C)CC12C (stereo unspecified) | 150 to 152 °C |
| COc1ccc2c(=O)[nH]nc(C)c2c1 | 252 to 254 °C |
| O=c1[nH]c2cc(Cl)ccc2n1-c1cc(Cl)ccc1O | 256 to 257 °C |
| Cc1cc(C)c2ccc(N)nc2n1 | 215 to 220 °C |
| Cc1cc(C(C)(C)C)cc(C)c1C1C(=O)CC(C)(C)CC1=O | 224 to 249 °C |
| N#Cc1c(N)nc2ccc(N3CCOCC3)cc2c1O | 291 °C |
| CCCCn1nnnc1-c1c(O)ccc(-c2cccc(C(=O)OC)c2)c1O | 93 to 97 °C |
| NS(=O)(=O)c1ccccc1C=C1CCOC1=O | 178 to 180 °C |
| CC(=O)OC1CSC(Oc2cncc(-c3cccs3)c2)C(OC(C)=O)C1OC(C)=O (stereo unspecified) | 166 °C |
| Cn1ccnc1CC(O)C(F)(F)F (stereo unspecified) | 146 to 148 °C |
| Nc1c(C2CNCCO2)oc2ccccc2c1=O (stereo unspecified) | 140 to 141 °C |
| CC(C)=CCCC(C)=CCCC(C)=CCCC(C)=CC=C1SC(=S)N(CC(=O)O)C1=O | 35 to 37 °C |
| O=c1c(=NNc2ccccc2)c(=O)n(-c2ccccc2)c2ccccc2n1CCC1C2CC3CC(C2)CC1C3 (stereo unspecified) | 130 to 131 °C |
| CC(=O)NCCSc1cc(N)c([N+](=O)[O-])cc1N | 162 °C |
| CCP(=O)(CC)C(O)[C@H](CC1CCCCC1)NC(=O)[C@H](CC(C)C)NC(=O)[C@H](Cc1ccccc1)NC(=O)C1CCCC1 (stereo partly specified) | 170 to 171 °C |
| O=C(Nc1ccc(C(=O)N2Cc3ccccc3Cc3ccccc32)cc1)c1cccnc1 | 217 to 220 °C |
| Cc1ccccc1C(=O)CN1C(=O)C(NC(=O)c2cc3ccccc3[nH]2)N=C(C2CCCCC2)c2cccc(C)c21 (racemic) | 127 to 145 °C |
| COc1cc(C(=O)c2c[nH]c(-c3c[nH]c4ccccc34)n2)cc(OC)c1OC | 208 to 210 °C |
| CC(C)C(=O)CC(=O)Nc1ccccc1 | 46.5 to 58.8 °C |
| CCc1nn(-c2ccc(Cl)nn2)c(CC)c1[N+](=O)[O-] | 83 to 85 °C |
| CCCCCS(=O)(=O)NC(=O)c1ccc2[nH]cc(Cc3ccc(Cl)cc3Cl)c2c1 | 157 to 158 °C |
